Test results from US10517898B2, “Compositions and methods related to hematologic recovery” (The Regents of the University of California, priority 2014, dated 2019).

Test system: PTPσ^−/− BM cells
Test: Transendothelial migration assay (CFCs from migrated cells in lower chamber)
Type: cell-based
Conditions: 25 μM EHT1864, 16 hours culture, mouse spleen endothelial cell transwell, CFCs of migrated cells (FIG. 3D)
Description: Transendothelial migration assays were performed as follows. VeraVec™ mouse spleen endothelial cells (Angiocrine Bioscience, New York N.Y.) were cultured to confluence in […] pore transwells (Corning Incorporated, Corning N.Y.). Transwells were seeded with 200,000 BM cells in IMDM with 10% FBS, 1% penicillin-streptomycin, 125 ng/mL stem cell factor, 50 ng/mL Flt-3 ligand and 20 ng/mL thrombopoietin with or without 25 μM Rac inhibitor, EHT1864 (R&D Systems, Minneapolis, Minn.). 100 ng/mL SDF-1α (R&D) or media was added to the bottom chamber of the transwell. 16 hours post culture, cells in the bottom chamber were collected and CFCs were set up with the migrated cells.

## O=c1cc(CN2CCOCC2)occ1OCCCCCSc1ccnc2cc(C(F)(F)F)ccc12 [EHT1864]
  transendothelial migration capacity of PTPσ^−/− cells: completely abrogated
